The source of these data is PMC5963640 (Journal of Ocular Pharmacology and Therapeutics, 2018).

Each structure is given as a SMILES string. Where two headings read alike, the source gives them in different places.

Data set [1] concerns primary porcine TM (PTM) cells. Nature of the data set: Disruption of actin stress fibers, high-content screening. Particulars: for IC50: Sus scrofa, 6 h incubation, read-out: PTM IC50 (disruption of actin stress fibers). Format: cell-based.
Data set [2] concerns transformed human TM (HTM) cells (TM-1). The data set can be described thus: Disruption of focal adhesions, high-content screening. The data set is classed as cell-based. Particulars: 6 h incubation, read-out: HTM IC50 (disruption of focal adhesions).
In data set [3] the target is norepinephrine transporter (NET) (Homo sapiens, UniProt P23975). The data set can be described thus: NET inhibitory activity (data not shown).
Another data set has as its system mouse eyes. Particulars: eyes perfused ∼1 h, cited from earlier work.
The subject of another data set is human donor eyes. Particulars: perfused for 3 h; cited from earlier work.
The next data set deals with T1, ROCK1 (Homo sapiens, UniProt Q13464).
T1 construct: purchased Invitrogen/Life Technologies
The data set can be described thus: Kinase-Glo luminescent protein kinase assay, ROCK1. Format: biochemical. Particulars: ROCK1 and ROCK2. (Kinase-Glo reads ATP consumption through a luciferase reaction.)

In data set [4] the target is T2, calcium/calmodulin-dependent protein kinase II Alpha (CAMK2A) (Homo sapiens, UniProt Q9UQM7).
T2 construct: purchased Invitrogen/Life Technologies
Nature of the data set: Kinase-Glo luminescent protein kinase assay, CAMK2A. The data set is classed as biochemical. Particulars: average of ≥3 replicate experiments; read-out: CAM2A Ki.

The target of data set [5] is T3, protein kinase C-theta (PKC-theta) (Homo sapiens, UniProt Q04759).
T3 construct: purchased Invitrogen/Life Technologies
The data set can be described thus: Kinase-Glo luminescent protein kinase assay, PKC-theta. The data set is classed as biochemical. Particulars: average of ≥3 replicate experiments; read-out: PKCT Ki.

Data set [6] addresses T4, myotonic dystrophy kinase-related CDC42-binding kinase alpha (MRCKA) (Homo sapiens, UniProt Q5VT25).
T4 construct: purchased Upstate
The data set can be described thus: Kinase-Glo luminescent protein kinase assay, MRCKA. Particulars: average of ≥3 replicate experiments. The data set is classed as biochemical.

The nature of data set [7]: Absorption and distribution of radioactivity after single topical ocular dose. Particulars: for AUClast / Cmax / T1/2,e / Tmax: 14C-netarsudil 0.02% single topical ocular dose. The data set is classed as in vivo, Dutch Belted rabbits. As for the experimental part:
A single topical ocular dose of 0.02% ^14C-netarsudil mesylate (35 μL drop) was administered to both eyes of 3 male Dutch Belted rabbits in each of 7 groups. At 0.25, 0.5, 1, 4, 8, 24, and 48 h postdose, the following samples were harvested from each group: whole blood, derived plasma, AH, vitreous humor, cornea, conjunctiva, lens, iris/ciliary body, retina-choroid-plexus, liver, and kidneys. All samples were assayed for total radioactivity. A study of the same design was conducted for AR-12286, using a single topical ocular dose of 0.5% ^3H-AR-12286 (35 μL drop).

For data set [8], the system named is normotensive Dutch Belted rabbits. The data set can be described thus: Ocular hypotensive activity (IOP) in rabbits.
The test system of data set [9] is normotensive Formosan Rock monkeys. Nature of the data set: Ocular hypotensive activity (IOP) in monkeys. Particulars: 0.5%, Day 3.
Setting [10] is: male, Dutch Belted, rabbit, in vivo, topical or ocular.
Setting [11] is: Aqueous humor, L eye, radioactivity.
[12] abbreviates: Aqueous humor, R eye, radioactivity.
The mark [13] stands for this setting: Conjuctiva, L eye, radioactivity.
[14] abbreviates: Conjuctiva, R eye, radioactivity.
The mark [15] stands for this setting: Iris-ciliary body, L eye, radioactivity.
Where [16] appears, read: Iris-ciliary body, R eye, radioactivity.
The mark [17] stands for this setting: Retina-choroid-plexus, L eye, radioactivity.
[18] abbreviates: Retina-choroid-plexus, R eye, radioactivity.
[19] abbreviates: Vitreous humor, L eye, radioactivity.
The mark [20] stands for this setting: Vitreous humor, R eye, radioactivity.

T3 sequence (Q04759 whole entry): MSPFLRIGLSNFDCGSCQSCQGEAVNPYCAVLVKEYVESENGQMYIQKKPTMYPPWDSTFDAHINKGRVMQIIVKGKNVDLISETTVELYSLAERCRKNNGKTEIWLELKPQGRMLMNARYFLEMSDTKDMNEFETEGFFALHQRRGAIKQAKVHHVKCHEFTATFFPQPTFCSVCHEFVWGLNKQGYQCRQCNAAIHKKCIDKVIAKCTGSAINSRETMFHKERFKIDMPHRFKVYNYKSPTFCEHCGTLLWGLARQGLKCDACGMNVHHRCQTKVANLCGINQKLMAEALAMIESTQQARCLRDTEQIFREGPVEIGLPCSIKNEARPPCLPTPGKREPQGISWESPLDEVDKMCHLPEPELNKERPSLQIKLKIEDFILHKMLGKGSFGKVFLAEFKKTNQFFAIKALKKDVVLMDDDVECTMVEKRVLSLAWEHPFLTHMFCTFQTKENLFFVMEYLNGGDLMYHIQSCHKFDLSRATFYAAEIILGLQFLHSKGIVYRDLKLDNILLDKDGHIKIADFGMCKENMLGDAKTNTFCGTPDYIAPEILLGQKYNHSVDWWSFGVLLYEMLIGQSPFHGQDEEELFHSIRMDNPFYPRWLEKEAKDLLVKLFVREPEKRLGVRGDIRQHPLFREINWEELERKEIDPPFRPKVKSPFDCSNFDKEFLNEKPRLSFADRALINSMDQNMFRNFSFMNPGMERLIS
T4 sequence (Q5VT25 whole entry): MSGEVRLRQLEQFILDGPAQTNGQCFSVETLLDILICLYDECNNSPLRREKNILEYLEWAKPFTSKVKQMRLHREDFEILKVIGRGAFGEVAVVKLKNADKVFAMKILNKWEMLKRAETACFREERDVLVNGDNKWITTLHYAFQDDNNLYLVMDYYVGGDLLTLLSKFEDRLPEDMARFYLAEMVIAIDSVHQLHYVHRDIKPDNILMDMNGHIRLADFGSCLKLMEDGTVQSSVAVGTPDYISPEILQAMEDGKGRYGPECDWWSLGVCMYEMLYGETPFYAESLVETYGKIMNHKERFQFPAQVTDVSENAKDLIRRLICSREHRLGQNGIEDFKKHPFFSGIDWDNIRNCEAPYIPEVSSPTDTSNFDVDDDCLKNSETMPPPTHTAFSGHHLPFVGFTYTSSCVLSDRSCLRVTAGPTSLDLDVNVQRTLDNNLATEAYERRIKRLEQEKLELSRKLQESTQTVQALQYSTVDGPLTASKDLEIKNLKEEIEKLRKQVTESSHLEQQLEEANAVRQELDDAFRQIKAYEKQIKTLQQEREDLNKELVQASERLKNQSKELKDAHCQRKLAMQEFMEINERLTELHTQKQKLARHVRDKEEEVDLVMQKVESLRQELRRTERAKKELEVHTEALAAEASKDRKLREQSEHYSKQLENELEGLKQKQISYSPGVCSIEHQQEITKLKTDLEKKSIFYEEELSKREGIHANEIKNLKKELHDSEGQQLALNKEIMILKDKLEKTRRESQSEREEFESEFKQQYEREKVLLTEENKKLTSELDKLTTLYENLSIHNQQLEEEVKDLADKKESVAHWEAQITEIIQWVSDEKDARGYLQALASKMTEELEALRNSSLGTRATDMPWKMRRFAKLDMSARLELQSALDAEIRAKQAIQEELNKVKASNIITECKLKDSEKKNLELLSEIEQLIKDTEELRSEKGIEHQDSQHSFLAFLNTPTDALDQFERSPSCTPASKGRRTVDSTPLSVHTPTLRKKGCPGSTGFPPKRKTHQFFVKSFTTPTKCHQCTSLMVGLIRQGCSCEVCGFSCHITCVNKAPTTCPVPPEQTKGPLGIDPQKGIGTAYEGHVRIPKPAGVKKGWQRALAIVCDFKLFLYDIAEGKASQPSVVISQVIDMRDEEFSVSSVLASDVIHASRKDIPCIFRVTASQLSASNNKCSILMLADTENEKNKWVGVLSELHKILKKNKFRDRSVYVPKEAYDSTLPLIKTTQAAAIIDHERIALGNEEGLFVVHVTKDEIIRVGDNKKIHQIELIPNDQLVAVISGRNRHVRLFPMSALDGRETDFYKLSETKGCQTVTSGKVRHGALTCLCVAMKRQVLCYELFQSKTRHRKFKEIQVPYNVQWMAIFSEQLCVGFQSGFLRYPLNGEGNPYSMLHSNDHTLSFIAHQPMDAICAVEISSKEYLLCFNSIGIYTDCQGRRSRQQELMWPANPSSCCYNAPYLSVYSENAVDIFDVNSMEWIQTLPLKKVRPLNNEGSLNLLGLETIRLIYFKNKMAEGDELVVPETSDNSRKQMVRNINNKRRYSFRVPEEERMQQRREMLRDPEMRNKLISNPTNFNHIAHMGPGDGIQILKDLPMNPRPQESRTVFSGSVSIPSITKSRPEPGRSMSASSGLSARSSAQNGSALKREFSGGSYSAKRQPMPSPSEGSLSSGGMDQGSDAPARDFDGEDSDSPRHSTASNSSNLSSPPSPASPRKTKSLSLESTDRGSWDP
T2 sequence (Q9UQM7 whole entry): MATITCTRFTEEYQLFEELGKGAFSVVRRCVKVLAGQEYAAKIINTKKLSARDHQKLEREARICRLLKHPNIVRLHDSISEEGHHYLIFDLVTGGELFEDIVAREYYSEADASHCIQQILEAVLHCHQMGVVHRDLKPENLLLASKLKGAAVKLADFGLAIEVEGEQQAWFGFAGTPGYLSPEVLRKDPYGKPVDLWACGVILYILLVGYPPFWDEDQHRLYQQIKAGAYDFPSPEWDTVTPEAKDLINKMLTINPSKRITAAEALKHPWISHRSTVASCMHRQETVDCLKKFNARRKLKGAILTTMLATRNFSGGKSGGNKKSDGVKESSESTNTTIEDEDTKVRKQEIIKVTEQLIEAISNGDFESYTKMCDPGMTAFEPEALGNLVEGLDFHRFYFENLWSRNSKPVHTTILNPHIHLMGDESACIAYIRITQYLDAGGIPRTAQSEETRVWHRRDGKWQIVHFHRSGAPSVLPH
T1 sequence (Q13464 whole entry): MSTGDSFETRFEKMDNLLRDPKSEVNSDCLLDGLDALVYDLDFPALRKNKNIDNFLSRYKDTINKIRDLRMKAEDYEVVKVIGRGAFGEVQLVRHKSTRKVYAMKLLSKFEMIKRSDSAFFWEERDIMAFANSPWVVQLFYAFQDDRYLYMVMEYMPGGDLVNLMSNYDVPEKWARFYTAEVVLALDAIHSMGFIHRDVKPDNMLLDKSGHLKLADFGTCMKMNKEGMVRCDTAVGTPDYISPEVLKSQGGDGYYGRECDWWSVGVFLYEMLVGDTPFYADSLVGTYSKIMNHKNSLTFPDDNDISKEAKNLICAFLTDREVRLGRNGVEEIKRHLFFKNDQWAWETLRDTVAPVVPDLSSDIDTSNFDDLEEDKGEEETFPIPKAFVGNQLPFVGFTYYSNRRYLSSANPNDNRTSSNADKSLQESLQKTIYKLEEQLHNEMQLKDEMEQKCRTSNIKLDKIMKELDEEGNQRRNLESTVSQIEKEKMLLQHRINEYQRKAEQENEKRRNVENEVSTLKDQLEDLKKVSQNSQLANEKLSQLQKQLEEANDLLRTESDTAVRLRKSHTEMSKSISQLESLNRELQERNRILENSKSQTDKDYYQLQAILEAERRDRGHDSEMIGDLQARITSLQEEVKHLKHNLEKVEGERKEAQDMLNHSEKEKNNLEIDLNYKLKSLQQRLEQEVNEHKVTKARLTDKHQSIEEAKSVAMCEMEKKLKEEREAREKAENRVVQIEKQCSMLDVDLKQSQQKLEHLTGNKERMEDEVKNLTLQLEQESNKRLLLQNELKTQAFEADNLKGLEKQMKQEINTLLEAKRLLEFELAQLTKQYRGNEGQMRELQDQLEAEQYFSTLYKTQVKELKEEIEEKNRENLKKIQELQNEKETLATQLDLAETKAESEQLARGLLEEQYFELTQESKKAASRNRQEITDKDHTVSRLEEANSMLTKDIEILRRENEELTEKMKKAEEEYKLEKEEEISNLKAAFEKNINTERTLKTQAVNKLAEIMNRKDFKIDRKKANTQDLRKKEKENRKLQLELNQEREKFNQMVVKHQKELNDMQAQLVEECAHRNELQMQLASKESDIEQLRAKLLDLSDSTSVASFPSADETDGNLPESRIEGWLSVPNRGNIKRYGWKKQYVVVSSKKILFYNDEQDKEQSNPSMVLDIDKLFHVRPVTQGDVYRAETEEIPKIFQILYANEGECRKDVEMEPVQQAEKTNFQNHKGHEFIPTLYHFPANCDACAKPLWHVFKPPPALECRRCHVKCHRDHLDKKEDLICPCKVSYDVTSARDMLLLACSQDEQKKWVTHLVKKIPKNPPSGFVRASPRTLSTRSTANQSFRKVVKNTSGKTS
norepinephrine transporter (NET), sequence (P23975 whole entry, species assumed, the tested form may be a part): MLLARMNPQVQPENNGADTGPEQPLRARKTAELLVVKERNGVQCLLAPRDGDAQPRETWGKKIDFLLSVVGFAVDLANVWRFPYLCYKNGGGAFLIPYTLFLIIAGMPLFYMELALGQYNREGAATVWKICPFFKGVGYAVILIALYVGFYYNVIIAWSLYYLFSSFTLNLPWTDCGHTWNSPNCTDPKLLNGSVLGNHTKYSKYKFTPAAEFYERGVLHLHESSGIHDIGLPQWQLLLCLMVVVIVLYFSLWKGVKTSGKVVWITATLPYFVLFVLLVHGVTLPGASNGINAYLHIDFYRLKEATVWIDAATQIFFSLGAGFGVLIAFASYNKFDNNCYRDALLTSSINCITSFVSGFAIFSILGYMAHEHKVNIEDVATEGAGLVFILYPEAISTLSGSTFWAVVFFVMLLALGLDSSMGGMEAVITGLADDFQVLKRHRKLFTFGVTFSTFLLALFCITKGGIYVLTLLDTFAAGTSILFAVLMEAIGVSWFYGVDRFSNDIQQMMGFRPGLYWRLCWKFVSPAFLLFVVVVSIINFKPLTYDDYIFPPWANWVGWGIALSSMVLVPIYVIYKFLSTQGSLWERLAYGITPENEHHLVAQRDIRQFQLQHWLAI

Consider `O=S(=O)(c1cccc2cnccc12)N1CCCNCC1` [Fasudil, reference compound], for which the results for the IC50 in [1] and in [2] were 10.1 µM and 3940 nM, respectively.
Take `NC[C@@H](C(=O)Nc1ccc2cnccc2c1)c1ccc(CO)cc1` [Netarsudil-M1]: the “fold greater activity than netarsudil for disruption of actin stress fibers and focal adhesions” value in [1] (PTM and HTM cell-based assays) is approximately 5 fold. The IC50 (in general, the midpoint of a concentration-inhibition curve) in [1] was 0.022 µM; in data set [2], 3 nM. The NET inhibitory activity result in data set [3] is on record as “does not inhibit NET”. Besides, the “increase in outflow facility” value is 56% in the data set on mouse eyes (C57 mice) and 91% in the data set on mouse eyes (CD1 mice). Further, the “increase in outflow facility relative to control eyes” value in the data set with human donor eyes is 59.7%. The “fold greater activity against Rho kinase than netarsudil” value at ROCK1 is listed as 5 fold. Besides, the Ki (usually the dissociation constant of the complex between target and ligand, obtained from inhibition or displacement) came to 13.7 µM in data set [4], 0.027 µM in data set [5] and 7 nM in [6].
Turning to `CN(C)C(C(=O)Nc1ccc2c(=O)[nH]ccc2c1)c1ccsc1` (stereo not drawn) [AR-12286], the “T1/2,e values” in [7] (setting [10]) fell in the range of 9 to 41 h. In addition, the “Tmax in AH” value in [7] (setting [10]) is given as 0.25 to 0.5 h. For the same molecule, the “terminal elimination half-life (T1/2,e) in AH” value in data set [7] (setting [10]) lay in the range of 9 to 11 h. In addition, the IC50 in [1] turned out to be 0.924 µM; in data set [2], 818 nM. The Ki in [4] came to 5.85 µM; in data set [5], 9.32 µM; in data set [6], 28 nM. Besides, the IOP reduction was found to be 2.9 ± 0.2 mmHg in data set [8] (0.5%, 8 h after dosing on Day 3); 5.6 ± 0.3 mmHg in [9] (4 h after dosing); 3.9 ± 0.3 mmHg in data set [9] (24 h after dosing). Further, in data set [8] (Day 1), the “time of peak IOP-lowering efficacy after dosing” value was 0.5 h.
With `Cc1ccc(C(=O)OCc2ccc([C@@H]([14CH2]N)C(=O)Nc3ccc4cnccc4c3)cc2)c(C)c1` [^14C-Netarsudil], the AUClast is on record as 510 ng·eq·h/g in data set [7] (setting [11]); 613 ng·eq·h/g in [7] (setting [12]); 15 ng·eq·h/g in [7] (Blood, radioactivity); 9,525 ng·eq·h/g in [7] (setting [13]); 12,390 ng·eq·h/g in data set [7] (setting [14]); 63,387 ng·eq·h/g in data set [7] (Cornea, L eye, radioactivity). For the same molecule, the AUClast in [7] (Cornea, R eye, radioactivity) is on record as 69,605 ng·eq·h/g; in data set [7] (setting [15]), 10,845 ng·eq·h/g; in data set [7] (setting [16]), 11,555 ng·eq·h/g; in [7] (Kidney, radioactivity), 298 ng·eq·h/g; in [7] (Lens, L eye, radioactivity), 33 ng·eq·h/g; in data set [7] (Lens, R eye, radioactivity), 37 ng·eq·h/g. For the same molecule, the AUClast is 88 ng·eq·h/g in data set [7] (Liver, radioactivity); 24 ng·eq·h/g in data set [7] (Plasma, radioactivity); 1,390 ng·eq·h/g in [7] (setting [17]); 1,298 ng·eq·h/g in data set [7] (setting [18]); 51 ng·eq·h/g in data set [7] (setting [19]); 51 ng·eq·h/g in data set [7] (setting [20]). The Cmax in data set [7] (setting [11]) is 16 ng·eq/g; in [7] (setting [12]) it was 23 ng·eq/g; in data set [7] (Blood, radioactivity), 1 ng·eq/g; in data set [7] (setting [13]), 2,442 ng·eq/g; in [7] (setting [14]) it was 3,292 ng·eq/g; in data set [7] (Cornea, L eye, radioactivity) it was 3,666 ng·eq/g. The Cmax was 3,972 ng·eq/g in data set [7] (Cornea, R eye, radioactivity); 955 ng·eq/g in data set [7] (setting [15]); 416 ng·eq/g in [7] (setting [16]); 19 ng·eq/g in [7] (Kidney, radioactivity); 2 ng·eq/g in data set [7] (Lens, L eye, radioactivity); 2 ng·eq/g in data set [7] (Lens, R eye, radioactivity). Besides, the Cmax in [7] (Liver, radioactivity) is 6 ng·eq/g; in data set [7] (Plasma, radioactivity) it was 1 ng·eq/g; in data set [7] (setting [17]), 80 ng·eq/g; in [7] (setting [18]), 50 ng·eq/g; in data set [7] (setting [19]), 7 ng·eq/g; in [7] (setting [20]), 4 ng·eq/g. The “T1/2,e” value was determined as 17 h in data set [7] (setting [11]); 16 h in data set [7] (setting [12]); 27 h in [7] (Blood, radioactivity); 13 h in [7] (setting [13]); 17 h in data set [7] (setting [14]); 14 h in [7] (Cornea, L eye, radioactivity). Further, the “T1/2,e” value in data set [7] (Cornea, R eye, radioactivity) is 13 h; in [7] (setting [16]), 112 h; in [7] (Kidney, radioactivity), 16 h; in data set [7] (Lens, L eye, radioactivity), 99 h; in [7] (Lens, R eye, radioactivity) it was 83 h; in data set [7] (Liver, radioactivity), 13 h. Moreover, the “T1/2,e” value in [7] (Plasma, radioactivity) was determined as 16 h; in [7] (setting [17]) it was 204 h; in data set [7] (setting [18]) it was 68 h; in data set [7] (setting [19]), 12 h; in [7] (setting [20]) it was 15 h. Moreover, the Tmax (usually the time at which the peak concentration occurs) in [7] (setting [11]) amounted to 480 min; in data set [7] (setting [12]), 480 min; in data set [7] (Blood, radioactivity), 15 min; in data set [7] (setting [13]), 15 min; in data set [7] (setting [14]) it was 15 min; in [7] (Cornea, L eye, radioactivity), 30 min. Moreover, the Tmax in data set [7] (Cornea, R eye, radioactivity) is 15 min; in data set [7] (setting [15]), 15 min; in [7] (setting [16]) it was 480 min; in data set [7] (Kidney, radioactivity), 60 min; in data set [7] (Lens, L eye, radioactivity), 15 min; in [7] (Lens, R eye, radioactivity), 15 min. In addition, the Tmax in [7] (Liver, radioactivity) came out at 60 min; in data set [7] (Plasma, radioactivity), 30 min; in data set [7] (setting [17]), 15 min; in data set [7] (setting [18]), 30 min; in [7] (setting [19]) it was 15 min; in data set [7] (setting [20]), 15 min. In addition, the “Tmax in AH” value in [7] (netarsudil 0.02% single topical ocular dose, radioactivity) was 8 h.
With `CC(N)[C@H]1CC[C@H](C(=O)Nc2ccncc2)CC1` (stereo partly drawn) [Y27632, reference compound], the figures for the IC50 in data set [1] and in data set [2] were 9.97 µM and 1740 nM, respectively.
